How the values were obtained:
[1] = target: T1, Rhinovirus 3C protease (RVP) serotype-14 (Human rhinovirus 14, UniProt P03303); assay: Inhibition of Rhinovirus Protease, serotype 14 (FRET assay); assay type: biochemical; conditions: for kinact/KI: read-out: kobs/I; for Ki: 10 minute preincubation with 50 nM RVP prior to addition of substrate, read-out: INHIB (Ki)
T1 construct: Recombinant Rhinovirus 3C proteases from serotypes 14, 16, 2 or 89 were prepared; made in house
Method: Stock solutions (50 mM, in DMSO) of various compounds were prepared; dilutions were in the same solvent. Recombinant Rhinovirus 3C proteases from serotypes 14, 16, 2 or 89 were prepared by the following standard chromatographic procedures: (1) ion exchange using Q Sepharose Fast Flow from Pharmacia; (2) affinity chromatography using Affi-Gel Blue from Biorad; and (3) sizing using Sephadex G-100 from Pharmacia. Assays contained 2% DMSO, 50 mM tris pH 7.6, 1 mM EDTA, a compound at the indicated concentrations, approximately 1 μM substrate, and 50-100 nM protease. For Ki determinations, the compound and the enzyme were preincubated for 10 minutes at 30° C. prior to addition of the substrate (substrate start). The kobs/I values were obtained from reactions initiated by addition of enzyme rather than substrate. RVP activity is measured in the fluorescence resonance energy transfer assay. The substrate was (N-terminal) DABCYL-(Gly-Arg-Ala-Val-Phe-Gln-Gly-Pro-Val-Gly)-EDANS. In the uncleaved peptide, the EDANS fluorescence was quenched by the proximal DABCYL moiety. When the peptide was cleaved, the quenching was relieved, and activity was measured as an increase in fluorescence signal.
In the above table, all data is for RVP serotype-14 unless otherwise noted in parentheses. All strains of human rhinovirus (HRV) were purchased from American Type Culture Collection (ATCC), except for serotype 14, which was produced from the infectious cDNA clone constructed and supplied to us by Dr. Roland Rueckert at the Institute for Molecular Virology, University of Wisconsin, Madison, Wis. The column designated INHIB represents the percent inhibition, with the concentration of the compound in μM indicated in parentheses, unless Ki was assigned as designated by (Ki), at 10 minute preincubation with 50 nM RVP prior to addition of substrate was used. The data in the column designated kobs/I was measured from progress curves in enzyme start experiments.

HRV-14 = assay: Antirhinoviral HI-HeLa Cell Culture Assay (cell protection, XTT), HRV-14; assay type: cell-based, human rhinovirus; conditions: for TI: CC50/EC50, HRV serotype-14, 2880 min; for EC50: Rhinovirus B, HRV14, 48 h, HRV serotype-14 infected HI-HeLa cells, XTT, two days
Method: In the Cell Protection Assay, the ability of compounds to protect cells against HRV infection was measured by the XTT dye reduction method. This method is described in O. S. Weislow, R. Kiser, D. L. Fine, J. Bader, R. H. Shoemaker, and M. R. Boyd, J. Natl. Cancer Inst. 1989, 81, 577-586, which document is entirely incorporated herein by reference.
(§1) HI-HeLa cells were infected with HRV-14 (unless otherwise noted) at a multiplicity of infection (m.o.i.) of 0.13 (virus particles/cell) or mock-infected with medium only. Infected or mock-infected cells were resuspended at 8×10^5 cells per mL and incubated with appropriate concentrations of compounds of formulas I and II. Two days later, XTT/PMS was added to test plates, and the amount of formazan produced was quantified spectrophotometrically at 450/650 nm. The EC50 was calculated as the concentration of compound that increased the percentage of formazan production in compound-treated, virus-infected cells to 50% of that produced by compound-free mock-infected cells. The 50% cytotoxic dose (CC50) was calculated as the concentration of compound that decreased the percentage of formazan produced in compound-treated, mock-infected cells to 50% of that produced in compound-free, mock-infected cells. The therapeutic index (TI) was calculated by dividing the CC50 by the EC50.
(§2) All strains of human rhinovims (HRV) for use in this assay were purchased from American Type Culture Collection (ATCC), except for HRV serotype-14, which was produced from the infectious cDNA clone, constructed and supplied to us by Dr. Roland Rueckert at the Institute for Molecular Virology, University of Wisconsin, Madison, Wis. HRV stocks were propagated, and antiviral assays were performed in HI-HeLa (ATCC). Cells were grown in Minimal Essential Medium, available from Life Technologies, with 10% fetal bovine serum.
The compounds were tested against control compounds WIN 51711, WIN 52084, and WIN 54954, all obtained from Sterling-Winthrop Pharmaceuticals, and control compound Pirodavir, obtained from Janssen Pharmaceuticals. Antiviral data obtained for the test compounds are shown in Table 2 where all data are for HRV serotype-14 unless otherwise noted in parentheses.

in vitro = assay type: cell-based; conditions: human, hi-hela cells
Method: as §1, §2

T1 sequence (P03303 1538-1719): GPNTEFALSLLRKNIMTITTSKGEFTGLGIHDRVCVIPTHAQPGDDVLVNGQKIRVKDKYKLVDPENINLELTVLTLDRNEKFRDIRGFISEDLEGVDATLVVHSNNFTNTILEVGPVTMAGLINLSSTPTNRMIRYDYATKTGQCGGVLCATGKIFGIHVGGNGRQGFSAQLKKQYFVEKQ

| Structure (SMILES) | kinact/KI [1] [M⁻¹ s⁻¹] | TI (HRV-14) | EC50 (HRV-14) [µM] | CC50 at 48 h (in vitro) [µM] | Ki ([1]; RVP serotype-14) [µM] | inhibition at 10 µM ([1]; RVP serotype-14, 10 μM compound, 10 minute preincubation with 50 nM RVP, read-out: INHIB (percent inhibition)) [%] |
| --- | --- | --- | --- | --- | --- | --- |
| CON(C)C(=O)/C=C/[C@H](CCC(N)=O)NC(=O)[C@@H]1[C@@H](c2ccccc2)CCN1C(=O)[C@H](CC(C)C)NC(=O)OCc1ccccc1 [Compound 22, N-Methoxy, N-Methyl-3-[CBZ-L-Leu L-(3R-Phenyl)-Pro-L-Gln]-E-Propenamide] | 100 | > 2 | 178 | > 320 | – | – |
| CCOC(=O)/C=C/[C@H](CCC(N)=O)NC(=O)[C@H](Cc1ccccc1)N(C)C(=O)[C@H](CC(C)C)NC(=O)SC1CCCCC1 [Compound 42] | 15000 | 111 | 0.45 | 50.1 | – | – |
| CCOC(=O)/C=C/[C@H](CCC(N)=O)NC(=O)[C@H](Cc1ccc(C)cc1)N(C)C(=O)[C@@H](NC(=O)SC1CCCC1)C(C)(C)C [Compound 48] | 14000 | > 20 | 0.5 | > 10 | – | – |
| CCOC(=O)/C=C/C(CCC(N)=O)NC(=O)[C@H](Cc1ccccc1)N1CC[C@H](NC(=O)OCc2ccccc2)C1=O (stereo partly drawn) [Compound 53] | 242 | > 22 | 4.5 | > 100 | – | – |
| COCCOC(=O)/C=C/[C@H](CCC(N)=O)NC(=O)[C@H](Cc1ccccc1)N(C)C(=O)[C@H](CC(C)C)NC(=O)SC1CCCC1 [Compound 58] | 24300 | 113 | 0.56 | 63 | – | – |
| CCOC(=O)/C=C/[C@H](CCC(N)=O)NC(=O)[C@@H]1[C@@H](c2ccccc2)CCN1C(=O)[C@H](CC(C)C)NC(=O)OCc1ccccc1 [Compound 18, Ethyl-3-[CBZ-L-Leu-L-(3R-Phenyl)-Pro-L-Gln]-E-Propenoate] | 423 | 25 | 5 | 126 | 7 | – |
| CCOC(=O)/C=C/[C@H](CCC(N)=O)NC(=O)C1CN(Cc2ccccc2)CCN1C(=O)[C@H](CC(C)C)NC(=O)OCc1ccccc1 (mixture of isomers) [Compound 28, Ethyl-3-(CBZ-L-Leu-DL-(4-Benzyl)-Pipz-L-Gln]-E-Propenoate] | 116 | 18 | 6.9 | 125 | 50 | – |
| CCOC(=O)/C=C/[C@H](CCC(N)=O)NC(=O)[C@H](Cc1ccccc1)N(C)C(=O)[C@H](CC(C)C)NC(=O)SC1CCCC1 [Compound 5, Ethyl-3-(Cyclopentylthiocarbonyl-L-Leu-L-N-Me-Phe-L-Gln)-E-Propenoate] | 17300 | 214 | 0.24 | 51.4 | – | – |
| CCOC(=O)/C=C/[C@H](CCC(N)=O)NC(=O)[C@H](Cc1ccccc1)N(C)C(=O)[C@H](CC(C)C)NC(=O)SC(C)C [Compound 38] | 18200 | > 278 | 0.36 | > 100 | – | – |
| CC(C)C[C@H](NC(=O)OCc1ccccc1)C(=O)N1CCCC[C@H]1C(=O)N[C@H](/C=C/C(=O)N1CCCCO1)CCC(N)=O [Compound 26, 1-[1',2'-Oxazin-2'-yl]-3-(CBZ-L-Leu-L-Pip-L-Gln)-E-Propenone] | 875 | > 5 | 56 | > 320 | 34 | – |
| CCSC(=O)N[C@@H](CC(C)C)C(=O)N(C)[C@@H](Cc1ccccc1)C(=O)N[C@H](/C=C/C(=O)N1CCOC1=O)CCC(N)=O [Compound 17, 1-[2'-Oxazolidon-3'-yl]-3-(Ethylthiocarbonyl-L-Leu-L-N-Me-Phe-L-Gln)-E-Propepone] | 750000 | 106 | 0.5 | 53 | – | – |
| CCSC(=O)N[C@@H](CC(C)C)C(=O)N(C)[C@@H](Cc1ccccc1)C(=O)N[C@H](/C=C1\CCOC1=O)CCC(N)=O [Compound 8, 2-(Ethylthiocarbonyl-L-Leu-L-N-Me-Phe-L-Gln)-E-(α-Vinyl-γ-Butyrolactone)] | 6880 | > 32 | 10 | > 320 | – | – |
| CCOC(=O)/C=C/[C@H](CCC(N)=O)NC(=O)Cn1c(-c2ccccc2)ncc(N)c1=O [Compound 31, Ethyl-3-{[(5-Amino)-2-Phenyl-6Oxo-1,6-Dihydro-1-Pyrimidinyl]-L-Gln}-Propenoate] | 39 | > 6 | 56 | > 320 | – | – |
| CCOC(=O)/C=C/[C@H](CCC(N)=O)NC(=O)[C@H](Cc1ccccc1)N(C)C(=O)OCc1ccccc1 [Compound 1, Ethyl-3-(CBZ-L-N-Me-Phe-L-Gln)-E-Propenoate] | 52 | 13 | 20 | 251 | > 100 | – |
| CCOC(=O)/C=C/[C@H](CCC(N)=O)NC(=O)[C@H](Cc1ccccc1)N(C)C(=O)[C@H](CSc1ccccc1)NC(=O)SC1CCCC1 [Compound 46] | 36800 | 33 | 0.54 | 18 | – | – |
| CCOC(=O)/C=C/C(CCC(N)=O)NC(=O)[C@H](Cc1ccccc1)N1CC[C@@H](NC(=O)OCc2ccccc2)C1=O (stereo partly drawn) [Compound 55] | – | > 2 | 50 | > 100 | – | 20 |
| CCCOC(=O)/C=C/[C@H](CCC(N)=O)NC(=O)[C@H](Cc1ccccc1)N(C)C(=O)[C@H](CC(C)C)NC(=O)SC1CCCC1 [Compound 57] | 13500 | 89 | 0.56 | 50 | – | – |
| CCOC(=O)/C=C/[C@H](CCC(N)=O)NC(=O)[C@@H]1C[C@@H](OCc2ccccc2)CN1C(=O)[C@H](CC(C)C)NC(=O)OCc1ccccc1 [Compound 20, Ethyl-3-[CBZ-L-Leu-L-(4R-Benzyloxy)-Pro-L-Gln]-E-Propenoate] | 3330 | 10.3 | 5.4 | 56 | 62 | – |
| CCOC(=O)/C=C/[C@H](CCC(N)=O)NC(=O)[C@@H]1CCCN1C(=O)[C@H](CC(C)C)NC(=O)OCc1ccccc1 [Compound 19, Ethyl-3-(CBZ-L-Leu-L-Pro-L-Gln)-E-Propenoate] | 1930 | > 6 | 50 | > 320 | – | – |
| CCOC(=O)/C(C)=C/[C@H](CCC(N)=O)NC(=O)[C@H](Cc1ccccc1)N(C)C(=O)[C@H](CSc1ccccc1)NC(=O)SC1CCCC1 [Compound 47] | 6500 | 14 | 1.3 | 18 | – | – |
| CC(C)C[C@H](NC(=O)SC1CCCC1)C(=O)N(C)[C@@H](Cc1ccccc1)C(=O)N[C@H](/C=C1\CCOC1=O)CCC(N)=O [Compound 6, 2-(Cyclopentylthiocarbonyl-L-Leu-L-N-Me-Phe-L-Gln)-E(α-Vinyl-γ-Butyrolactone)] | 9500 | 54 | 2.8 | 151 | – | – |
| CCOC(=O)/C=C/[C@H](CCC(N)=O)NC(=O)[C@H](Cc1ccccc1)N(C)C(=O)[C@H](CC(C)C)NC(=O)SCC(C)C [Compound 44] | 12300 | 104 | 0.54 | 56.2 | – | – |

From patent US5962487A, “Antipicornaviral compounds and methods for their use and preparation” (Agouron Pharmaceuticals, Inc., priority 1997, dated 1999)
